Results: patent publication US7166580B2, “Compounds which inhibit leukocyte adhesion mediated by VLA-4” (Elan Pharmaceuticals, Inc., priority 1997, dated 2007)
Square brackets hold non-standard residues; d marks the D form. Peptide text beside a SMILES is read from it. * marks the point of attachment. Dip = N[C@H](C(=O)O)C(c1ccccc1)c1ccccc1; Tos = Cc1ccc(S(=O)(=O)*)cc1; OBn = c1ccc(CO*)cc1; Sar = CNCC(=O)O

Work on `Cc1ccc(S(=O)(=O)NC(C(=O)N[C@@H](Cc2ccccc2)C(=O)O)c2ccccc2)cc1` (mixture of isomers) [Example 9, N-(Toluene-4-sulfonyl)-D,L-phenylglycyl-L-phenylalanine] yielded a melting point of 150 to 152 °C.

Compound `CCOC(=O)[C@H](Cc1ccccc1)NC(=O)C(NS(=O)(=O)c1ccc(C)cc1)c1ccccc1` (mixture of isomers) [Example 22, N-(Toluene-4-sulfonyl)-D,L-phenylglycyl-L-phenylalanine Ethyl Ester] has a melting point of 145 to 147 °C.

In the case of `Cc1ccc(S(=O)(=O)NC(C(=O)N[C@@H](Cc2ccccc2)C(=O)OCc2ccccc2)c2ccccc2)cc1` (mixture of isomers) [Example 29, N-(Toluene-4-sulfonyl)-D,L-phenylglycyl-L-phenylalanine Benzyl Ester], the melting point is reported as 148 to 150 °C.

Compound `Cc1ccc(S(=O)(=O)N(C)C(C(=O)N[C@@H](Cc2ccccc2)C(=O)OCc2ccccc2)c2ccccc2)cc1` (mixture of isomers) [Example 30, N-(Toluene-4-sulfonyl)-N-methyl-D,L-phenylglycyl-L-phenylalanine Benzyl Ester] has a melting point of 46 to 49 °C.

`Cc1ccc(S(=O)(=O)NCC(=O)N[C@@H](Cc2ccccc2)C(=O)O)cc1` [Example 3, N-(Toluene-4-sulfonyl)glycyl-L-phenylalanine] (Tos-Gly-Phe-OH) gave a melting point of 157 to 161 °C.

Work on `Cc1ccc(S(=O)(=O)N(C)CC(=O)N[C@@H](Cc2ccccc2)C(=O)O)cc1` [Example 4, N-(Toluene-4-sulfonyl)sarcosyl-L-phenylalanine] (Tos-[Sar]-Phe-OH) yielded a melting point of 128 to 130 °C.

For `Cc1ccc(S(=O)(=O)N[C@@H](C)C(=O)N[C@@H](Cc2ccccc2)C(=O)O)cc1` [Example 5, N-(Toluene-4-sulfonyl)-L-alanyl-L-phenylalanine], the melting point was 105 to 108 °C.

With `COC(=O)c1ccccc1S(=O)(=O)NCC(=O)N[C@@H](Cc1ccccc1)C(=O)O` [Example 6, N-(2-Methoxycarbonylbenzenesulfonyl)-glycyl-L-phenylalanine] the melting point was 140 to 143 °C.

In the case of `Cc1ccc(S(=O)(=O)N[C@@H](C)C(=O)N[C@@H](Cc2ccccc2)C(=O)OCc2ccccc2)cc1` [Example 20, N-(Toluene-4-sulfonyl)-L-alanyl-L-phenylalanine Benzyl Ester], the melting point is reported as 109 to 110 °C.

`Cc1ccc(S(=O)(=O)N(C)CC(=O)N[C@@H](Cc2ccccc2)C(=O)OCc2ccccc2)cc1` [Example 21, N-(Toluene-4-sulfonyl)sarcosyl-L-phenylalanine Benzyl Ester] (Tos-[Sar]-Phe-OBn) showed a melting point of 80 to 82 °C.

Compound `Cc1ccc(S(=O)(=O)N[C@H](C(=O)N[C@@H](Cc2ccccc2)C(=O)OCc2ccccc2)C(c2ccccc2)c2ccccc2)cc1` [Example 25, N-(Toluene-4-sulfonyl)-L-diphenylalanyl-L-phenylalanine Benzyl Ester] (Tos-[Dip]-Phe-OBn) has a melting point of 79 to 84 °C.
